Assay results reported in publication PMC2863073 (Glia, 2008).

Tested on: oligodendrocyte NMDA receptor (NR1-containing; probably NR1, NR2C and NR3)
Experiment: whole-cell patch clamp of NMDA-evoked current, […] min memantine pre-exposure
Format: cell-based, Rattus norvegicus

## CC12CC3CC(C)(C1)CC(N)(C3)C2 [memantine]
  IC50: 54 µM
